According to US20060019890A1, “Method for treating cardiac remodeling following myocardial injury” (priority 2004, published 2006):

What was measured:
acute myocardial injury [1] = assay: Heart/body weight ratio in L-NAME/AngII acute myocardial injury model; type: in vivo; conditions: L-NAME/AngII rats, rat BNP i.v. infusion day 10 to day 14
Description: (§1) In a related study, an in vivo model for acute myocardial injury was used to explore the effects of BNP. Male Sprague Dawley rats ranging in weight from 225 to 250 gm were utilized. Acute myocardial injury was induced by administration of Nω-nitro-L-arginine methyl ester (L-NAME, 40 mg/kg/day)salt (1% NaCl) plus angiotensin II (AngII, 0.5 mg/kg/day) in the rats. The L-NAME was administered in drinking water from day 1 to day 14. Angiotensin II was continuously infused subcutaneously with an osmotic pump from day 11 to day 14. Rat BNP ([…]) was intravenously infused through an external infusion pump from day 10 to day 14.
(§2) Systolic blood pressure, plasma level of aldosterone, cardiac function heart/body weight ration and gene expression in the heart were analyzed. Systolic blood pressure was monitored via tail cuff technique with an IITC blood pressure recording system. Cardiac function was monitored via a Millar ARIA Pressure Volume Conductance System with an 1.4 F catheter. Gene expression as referenced above with results provided in FIG. 12 were monitored by RT-PCR with an ABI Prism™ 7700 sequence detection system.

acute myocardial injury [2] = assay: Gene expression in the heart by RT-PCR in L-NAME/AngII acute myocardial injury model; type: in vivo, rat; conditions: stimulated by L-NAME plus angiotensin II
Description: In a related study, a gene microassay profile of rat heart tissue was conducted. Fibrotic and extracellular matrix associated genes were stimulated in vivo by L-NAME plus angiotensin II.
as §1, §2

[3] = Plasma level of aldosterone in L-NAME/AngII acute myocardial injury model; type: in vivo; conditions: L-NAME/AngII rats, rat BNP i.v. infusion day 10 to day 14
Description: as §1, §2

acute myocardial injury [4] = assay: Systolic blood pressure (tail cuff) in L-NAME/AngII acute myocardial injury model; type: in vivo; conditions: rat BNP i.v. infusion day 10 to day 14
Description: as §1, §2

[5] = Degradation of added BNP in cardiac fibroblast culture (immunoreactive assays and cGMP stimulation cell bioassays); type: in vitro ADME; conditions: human, primary human cardiac fibroblasts in culture, within 24 h, read-out: added BNP metabolized
Description: Two lots of primary human cardiac fibroblasts, derived from a person (lot 1) and a person (lot 2), were provided by Cambrex Bio Science (Walkersville, Md.). […] Cells at passage 3-5 were cultured in FGM containing 15% FBS. At confluence, cells were split and cultured in 6-well plates for 24 h.

acute myocardial injury [6] = assay: Cardiac function (Millar pressure volume conductance system) in L-NAME/AngII acute myocardial injury model; type: in vivo, rat; conditions: L-NAME/AngII rats
Description: as §1, §2

[7] = tested on: human cardiac fibroblasts; assay: cDNA microarray gene expression profiling of TGFβ- and/or BNP-treated cardiac fibroblasts
Description: Two lots of primary human cardiac fibroblasts, derived from a person (lot 1) and a person (lot 2), were provided by Cambrex Bio Science (Walkersville, Md.). Cells stained positive for α-smooth muscle actin and vimenfin antibodies corroborating their identity as cardiac fibroblasts and myofibroblasts. Both lots were used for the real-time RT-PCR studies; lot 1 was used for the microarray analysis. Cells at passage 3-5 were cultured in FGM containing 15% FBS. At confluence, cells were split and cultured in 6-well plates for 24 h.
Gene expression profiles were determined from cDNA microarrays containing 8,600 elements derived from clones isolated from normalized cDNA libraries or purchased from ResGen (Invitrogen Life Technologies, Carlsbad, Calif.). DNA for spotting was generated by PCR amplification using 5′amino-modified primers (BD Biosciences Clontech, Palo Alto, Calif.) derived from flanking vector sequences. Amplified DNA was purified in a 96-well format using Qiagen's Qiaquick columns (Valencia, Calif.) according to the manufacturer's recommendations. Samples were eluted in Milli-Q purified water, dried to completion and resuspended in 7 μl of 3×SSC. A fluorescent assay using PicoGreen (Molecular Probes, Eugene, Oreg.) was randomly performed on 12% of the PCR products to determine the average yield after purification; yields were ˜1.5 μg of DNA which corresponds to a concentration of 214 μg/ml. Purified DNA was arrayed from 384-well microtiter plates onto lysine-coated glass slides using an OmniGrid II microarrayer (GeneMachines, San Carlos, Calif.). After printing, DNA was cross-linked to the glass with 65 mjoules UV irradiation and reactive amines were blocked by treatment with succinic anhydride.
Total RNA was extracted from cells using Qiagen's RNeasy kit; two wells from a 6 well plate were pooled to yield a total of 4×10^5 cells per treatment. RNA was amplified using a modified Eberwine protocol^5 that incorporated a polyA tail into the amplified RNA. Fluorescently-labeled cDNA probes were generated by reverse transcription of 4 μg of RNA with SuperScript II (Invitrogen Life Technologies, Carlsbad, Calif.) using anchored dT primers in the presence of Cy3 or Cy5 dUTP (Amersham, Piscataway, N.J.). Labeled cDNA probe pairs were precipitated with ethanol and purified using Qiaquick columns. Twenty μg each of poly(A) DNA, yeast tRNA, and human Cot1 DNA (Applied Genetics, Melbourne, Fla.) was added to the eluant. The samples were dried to completion and resuspended in 12.5 μl 3×SSC, 0.1% SDS. Probes were heated to 95° C. for 5 minutes, applied to the arrays under a 22 mm^2 cover slip and allowed to hybridize for at least 16 h at 65° C. The arrays were washed at 55° C. for 10 minutes in 2×SSC, 0.1% SDS, followed by two washes at room temperature in 1×SSC (10 min) and 0.2×SSC (15 min). Hybridization of each fluorophore was quantified using an Axon GenePix 4000A scanner.
Differential expression values were expressed as the ratio of the median of background-subtracted fluorescent intensity of the experimental RNA to the median of background-subtracted fluorescent intensity of the control RNA. For ratios greater than or equal to 1.0, the ratio was expressed as a positive value. For ratios less than 1.0, the ratio was expressed as the negative reciprocal (i.e., a ratio of 0.5=−2.0). Median ratios were normalized to 1.0 using two pools of 3000 randomly chosen cDNAs in each pool. Six replicates of each of the two pools were printed in 4 evenly distributed blocks of the array. Expression data was rejected if neither channel produced a signal of at least 2.0-fold over background. Differential expression ratios were determined as the mean of the two values from dye-swapped duplicates.

[8] = tested on: human cardiac fibroblasts; assay: Western blot analysis of Collagen 1 and Fibronectin protein; type: cell-based; conditions: 48 h; for effect on BNP inhibition of TGFβ-induced Collagen-1 expression, Western blot: U0126 0.1-10 μmol/L, PD98059 10 μmol/L
Description: (§3) Lysis was induced with 0.2 ml of buffer containing 20 mM Tris-HCL, pH 7.9, 137 mM NaCl, 1% Triton X-100, 5 mM EDTA, 10 mM NaF, 1 mM β-glycerophosphate, and protease inhibitor cocktail. The protein concentration of each lysate was measured using coomassie protein reagent from PIERCE. Twenty μg of protein from each sample was loaded and electrophoresed on 4-12% gradient polyacrylamide gels and electrophoretically transferred to nitrocellulose membranes (Invitrogen, San Diego, Calif.). The membranes were incubated with rabbit anti-human Collagen 1 antibody (Cortex Biochem, San Leandro, Calif.), HRP-conjugated anti-human Fibronectin antibody, or goat anti-Actin antibody (Santa Cruz Biotehnology, Santa Cruz, Calif.) in TBST buffer containing 20 mM Tris-HCl, pH 7.5, 150 mM NaCl, 0.1% Tween-20, and 5% nonfat dried milk at 4° C. for ˜16 h. For ERK phosphorylation, cells were treated with 0.5 μmol/L BNP in the presence of 1 μmol/L KT5823 or 10 μmol/L U0126 for 15 min; the membranes were incubated with rabbit anti-human phospho-ERK ½ antibody or rabbit anti-human ERK ½ antibody (Cell Signaling, Beverly, Mass.). For secondary antibody detection, membranes were incubated with HRP-conjugated anti-rabbit antibody or anti-goat antibody at room temperature for 1 h and washed 3 times with TBST buffer. The blots were soaked in ECL Plus reagent for 5 min and exposed to KODAK x-ray film. Signals were identified and quantified using a Typhoon Scanner and Densitometer from Amersham Biosciences (Piscataway, N.J.). Data was analyzed by ANOVA using the Newman-Keuls test to assess significance. Results cGMP Production in Cardiac Fibroblasts

ERK = assay: Western analysis of ERK phosphorylation; type: cell-based, human; conditions: 15 min; for effect on BNP induced ERK phosphorylation: KT5823 1 μmol/L or U0126 10 μmol/L
Description: as §3

[9] = tested on: human cardiac fibroblasts; assay: Real-time RT-PCR gene expression in cardiac fibroblasts; type: cell-based; conditions: for ACTA2 expression level relative to control / CTGF expression level relative to control / Collagen 1 expression level relative to control / Fibronectin expression level relative to control / IL6 expression level relative to control / IL11 expression level relative to control / PTGS2/COX-2 expression level relative to control / SERPINE1/PAI-1 expression level relative to control / TIMP3 expression level relative to control: normalized to 18s RNA; for effect on BNP inhibition of TGFβ-induced Collagen-1 expression, real-time RT-PCR: U0126 0.1-10 μmol/L, PD98059 10 μmol/L
Description: Real-time RT-PCR^18 was performed in a two-step manner. cDNA synthesis and real-time detection were carried out in a PTC-100™ Thermal Cycler (MJ Research Inc, Waltham, Mass.) and an ABI Prism™ 7700 Sequence Detection System (Applied Biosystems, Foster City, Calif.), respectively. Random hexamers (Qiagen, Valencia, Calif.) were used to generate cDNA from 200 ng RNA as described in Applied Biosystems User Bulletin #2. TaqMan™ PCR Core Reagent Kit or TaqMan™ Universal PCR Master Mix (Applied Biosystems) were used in subsequent PCR reactions according to the manufacturer's protocols. Relative quantitation of gene expression was performed using the relative standard curve method. All real-time RT-PCR reactions were performed in triplicate.
Sequence specific primers and probes were designed using Primer Express Version 2 software (Applied Biosystems). Sequences of primers and probes can be found in Table 1 below. Expression levels were normalized to 18S rRNA. The selection of 18S rRNA as an endogenous control was based on an evaluation of the ΔCT levels (Applied Biosystems document # 4308134C) of 6 “housekeeping” genes: Cyclophilin A, 18S, GAPDH, β-actin, β-Glucuronidase, and Hypoxanthine Guanine Phosphoribosyl Transferase.

[10] = rat BNP i.v. infusion day 10 to day 14
[11] = TGFβ-stimulated cells, microarray

CC[C@H](C)[C@@H]1NC(=O)[C@H](CCCNC(=N)N)NC(=O)[C@H](CC(=O)O)NC(=O)[C@H](CCSC)NC(=O)[C@H](CCCCN)NC(=O)[C@H](CCCNC(=N)N)NC(=O)CNC(=O)[C@H](Cc2ccccc2)NC(=O)[C@@H](NC(=O)CNC(=O)[C@H](CO)NC(=O)CNC(=O)[C@H](CCC(N)=O)NC(=O)[C@@H](NC(=O)[C@H](CCSC)NC(=O)[C@H](CCCCN)NC(=O)[C@@H]2CCCN2C(=O)[C@@H](N)CO)C(C)C)CSSC[C@@H](C(=O)N[C@@H](CCCCN)C(=O)N[C@H](C(=O)N[C@@H](CC(C)C)C(=O)N[C@@H](CCCNC(=N)N)C(=O)N[C@@H](CCCNC(=N)N)C(=O)N[C@@H](Cc2c[nH]cn2)C(=O)O)C(C)C)NC(=O)CNC(=O)[C@H](CC(C)C)NC(=O)CNC(=O)[C@H](CO)NC(=O)[C@H](CO)NC(=O)[C@H](CO)NC(=O)[C@H](CO)NC1=O [BNP, brain natriuretic peptide]
heart/body weigh ratio (acute myocardial injury [1]): 0.0029±0.001
mRNA expression for collagen I in rat heart (acute myocardial injury [2]): markedly reduced
mRNA expression for collagen III in rat heart (acute myocardial injury [2]): markedly reduced
mRNA expression for fibronectin in rat heart (acute myocardial injury [2]): markedly reduced
plasma aldosterone [3]: 6.6 ± 0.16 ng/mL
effect on systolic blood pressure raised by L-NAME+AngII (acute myocardial injury [4]): no effect
metabolised at 24 h [5]: 50%
effect on cardiac output (acute myocardial injury [6]): increases
effect on heart rate (acute myocardial injury [6]): no effect
effect on maximum dP/dt (acute myocardial injury [6]): increased
effect on minimum dP/dt (acute myocardial injury [6]): increased
arterial elastance (acute myocardial injury [6]; [10]): 42.6±5.1 mmHg/ul
diastolic volume (acute myocardial injury [6]; [10]): 22.4 ± 1.1 µL
ejection fraction (acute myocardial injury [6]; [10]): 20.4±2.4%
stroke volume (acute myocardial injury [6]; [10]): 4.74 ± 0.73 µL
stroke work (acute myocardial injury [6]; [10]): 531.5±99.1 mmH*ul
TGFβ-regulated gene expression events opposed ([7]; 24 h): ~88%
TGFβ-regulated gene expression events opposed ([7]; 48 h): ~85%
effect on TGFβ-induction of PTGS2 (COX2), TNFAIP6 and TNFSF4 [7, 11]: reversed
effect on TGFβ-regulated cell proliferation genes (PDGFA, IGFBP10, IGF1, PTHLH, CDC25B, CUL5) [7, 11]: opposed
effect on fibrosis and ECM gene cluster up-regulated by TGFβ [7, 11]: down-regulated
effect on gene expression in unstimulated human cardiac fibroblasts ([7]; microarray, 24 and 48 h): no significant effects
effect on TGFβ-induced Fibronectin protein expression [8]: inhibited
inhibition of TGFβ-stimulated Collagen 1 protein synthesis [8]: ~75%
ERK phosphorylation (ERK; BNP 0.5 μmol/L): activates ERK
effect on TGFβ induction of Collagen 1 mRNA levels ([9]; 6, 24 and 48 h): blocked
ACTA2 expression level relative to control ([9]; 6 h, lot 1): 0.8 ± 0.12
CTGF expression level relative to control ([9]; 6 h, lot 1): 0.9 ± 0.24
Collagen 1 expression level relative to control ([9]; 6 h, lot 1): 1.0 ± 0.05
Fibronectin expression level relative to control ([9]; 6 h, lot 1): 0.9 ± 0.19
IL6 expression level relative to control ([9]; 6 h, lot 1): 0.9 ± 0.02
IL11 expression level relative to control ([9]; 6 h, lot 1): 1.1 ± 0.04
PTGS2/COX-2 expression level relative to control ([9]; 6 h, lot 1): 1.2 ± 0.22
SERPINE1/PAI-1 expression level relative to control ([9]; 6 h, lot 1): 0.7 ± 0.08
TIMP3 expression level relative to control ([9]; 6 h, lot 1): 0.9 ± 0.11
ACTA2 expression level relative to control ([9]; 24 h, lot 1): 0.9 ± 0.11
CTGF expression level relative to control ([9]; 24 h, lot 1): 1.0 ± 0.29
Collagen 1 expression level relative to control ([9]; 24 h, lot 1): 1.1 ± 0.13
Fibronectin expression level relative to control ([9]; 24 h, lot 1): 1.0 ± 0.10
IL6 expression level relative to control ([9]; 24 h, lot 1): 0.9 ± 0.21
PTGS2/COX-2 expression level relative to control ([9]; 24 h, lot 1): 1.2 ± 0.38
SERPINE1/PAI-1 expression level relative to control ([9]; 24 h, lot 1): 0.7 ± 0.01
TIMP3 expression level relative to control ([9]; 24 h, lot 1): 1.0 ± 0.12
ACTA2 expression level relative to control ([9]; 24 h, lot 2): 0.9 ± 0.25
Fibronectin expression level relative to control ([9]; 24 h, lot 2): 0.9 ± 0.24
IL6 expression level relative to control ([9]; 24 h, lot 2): 0.9 ± 0.07
IL11 expression level relative to control ([9]; 24 h, lot 2): 1.0 ± 0.05
SERPINE1/PAI-1 expression level relative to control ([9]; 24 h, lot 2): 0.7 ± 0.11
TIMP3 expression level relative to control ([9]; 24 h, lot 2): 0.7 ± 0.09
effect on TGFβ-induced Fibronectin mRNA expression ([9]; 48 h): inhibited
ACTA2 expression level relative to control ([9]; 48 h, lot 1): 1.0 ± 0.03
Collagen 1 expression level relative to control ([9]; 48 h, lot 1): 1.2 ± 0.03
Fibronectin expression level relative to control ([9]; 48 h, lot 1): 1.1 ± 0.04
IL6 expression level relative to control ([9]; 48 h, lot 1): 0.9 ± 0.03
IL11 expression level relative to control ([9]; 48 h, lot 1): 0.7 ± 0.10
PTGS2/COX-2 expression level relative to control ([9]; 48 h, lot 1): 1.0 ± 0.12
SERPINE1/PAI-1 expression level relative to control ([9]; 48 h, lot 1): 0.9 ± 0.00
TIMP3 expression level relative to control ([9]; 48 h, lot 1): 0.9 ± 0.00
ACTA2 expression level relative to control ([9]; 48 h, lot 2): 0.7 ± 0.11
Collagen 1 expression level relative to control ([9]; 48 h, lot 2): 1.0 ± 0.01
Fibronectin expression level relative to control ([9]; 48 h, lot 2): 1.0 ± 0.11
IL6 expression level relative to control ([9]; 48 h, lot 2): 0.9 ± 0.06
IL11 expression level relative to control ([9]; 48 h, lot 2): 0.8 ± 0.09
PTGS2/COX-2 expression level relative to control ([9]; 48 h, lot 2): 1.0 ± 0.06
SERPINE1/PAI-1 expression level relative to control ([9]; 48 h, lot 2): 0.8 ± 0.03
TIMP3 expression level relative to control ([9]; 48 h, lot 2): 0.6 ± 0.00

COC(=O)[C@@]1(OC)C[C@H]2O[C@]1(C)n1c3ccccc3c3c4c(c5c6ccccc6n2c5c31)C(=O)N(C)C4 [KT5823]
effect on BNP induced ERK phosphorylation (ERK): completely blocked

COc1cccc(-c2cc(=O)c3ccccc3o2)c1N [PD98059]
effect on BNP inhibition of TGFβ-induced Collagen-1 expression, Western blot [8]: reversed
effect on BNP inhibition of TGFβ-induced Collagen-1 expression, real-time RT-PCR ([9]; 48 h): reversed

N#CC(=C(/N)Sc1ccccc1N)/C(C#N)=C(\N)Sc1ccccc1N [U0126]
effect on BNP inhibition of TGFβ-induced Collagen-1 expression, Western blot [8]: reversed
effect on BNP induced ERK phosphorylation (ERK): completely blocked
effect on BNP inhibition of TGFβ-induced Collagen-1 expression, real-time RT-PCR ([9]; 48 h): reversed
